The values below are quoted from earlier work in patent US5654452A, “Lipophilic contrast agents for use in hepatocyte-selective oil-in-water emulsions” (Molecular Biosystems, Inc., priority 1995, dated 1997).

Each structure is given as a SMILES string.

This data set concerns reticulendothelial system (RES). To be noted: in vivo.

For the compound `CCOC(=O)c1c(I)cc(I)c(NC(=O)CCCCC(=O)Nc2c(I)cc(I)c(C(=O)OCC)c2I)c1I` [iodipamide ethyl esters], the “uptake / liver specificity in reticuloendothelial system” value is “liver specificity is mediated primarily via sequestration by the reticulendothelial system (RES)”.
